Test results: a compilation of properties of binary mixtures (doi:10.1007/s10953-017-0578-y)

Experiment: xn = mol fraction of the nth substance listed
Conditions: 100 kPa

CNc1ccccc1 + CC[n+]1ccn(C)c1.F[B-](F)(F)F
speed of sound [m/s]
Conditions	x2 = 0	x2 = 0.1046	x2 = 0.2048	x2 = 0.3057	x2 = 0.3985	x2 = 0.5064	x2 = 0.6045	x2 = 0.6994	x2 = 0.8005	x2 = 0.9084
293.15 K	–	1603.9	1617.6	1627.9	1632.7	1632.5	–	1627.7	1625.9	1627
303.15 K	–	1568.9	1586.9	–	1603.8	1604.7	1604.1	1602.6	1601.3	1604
313.15 K	1511.7	–	–	1567	1574.4	1576.1	1578.3	1577.9	1576.2	1579.4
323.15 K	1476.4	1500.3	1523.6	1537.2	1545.6	1549	–	1551.6	1550.4	1553.3

CC[n+]1ccn(C)c1.F[B-](F)(F)F + CNc1ccccc1
x1 = 1
Conditions	speed of sound [m/s]
293.15 K	1632.6
303.15 K	1609.5
313.15 K	1586.2
323.15 K	1563.4
